Measured values: US11001569B2, “6-membered heteroaromatic substituted cyanoindoline derivatives as NIK inhibitors” (Janssen Pharmaceutica NV, priority 2016, dated 2021)
Like-named read-outs stand apart in the source and are kept apart here.

Experiments:
[1] = molecular target: recombinant human NF-kappaB-inducing Kinase (NIK/MAP3K14) (Homo sapiens, UniProt Q99558); test: Inhibition of auto-phosphorylation of recombinant human NIK/MAP3K14 activity (AlphaScreen); type: biochemical; conditions: 25 microM ATP, averaged over all measurements on all batches
[2] = tested on: JJN-3 (NIK translocated) multiple myeloma cells; test: Antiproliferative activity on JJN-3 multiple myeloma cells (CellTiter-Glo); type: cell-based, human; conditions: Homo sapiens, JJN-3, 96 h, JJN-3 (NIK translocated) cells, 96 hr treatment, averaged values, read-out: JJN-3 Proliferation inhibition (IC50 (nM))
Procedure, shortened: (§1)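 Cells plated at 15000 (JJN3) or 20000 (KMS12BM) per well and treated 96 h at 37° C, 5% CO2, final DMSO 0.3%, 9-point 1:3 dilutions. Viability by CellTiter-Glo luminescence; time-zero blank subtracted, growth expressed as percent of untreated control.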

[3] = tested on: P-IKKα levels in L363 (NIK translocated multiple myeloma) cells; test: Effect of compounds on P-IKKα levels in L363 cells (Mesoscale sandwich immuno-assay); type: cell-based, human; conditions: 2 hr treatment, averaged values, read-out: Inhibition of pIKKα_L-363 (IC50 (nM))
Experimental: Effect of Compounds on P-IKKα Levels in L363 (NIK Translocated Multiple Myeloma) Cells
All compounds tested were dissolved in DMSO and further dilutions were made in culture medium. Final DMSO concentration was 1% (v/v) in cell assays. The human L363 cells (ATCC) were cultured in RPMI 1640 medium supplemented with GlutaMax and 10% fetal calf serum (PAA). Cells were routinely maintained at densities of 0.2×10^6 cells per ml-1×10^6 cells per ml at 37° C. in a humidified 5% CO2 atmosphere. Cells were passaged twice a week splitting back to obtain the low density. Cells were seeded in 96 well plates (Nunc 167008) at 2×10^6 per ml media in a volume of 75 μl per well plus 25 μl 1 μg/ml recombinant human B-cell activating factor (BAFF/BLyS/TNFSF13B). Seeded cells were incubated at 37° C. in a humidified 5% CO2 atmosphere for 24 hr. Drugs and/or solvents were added (20 μl) to a final volume of 120 μl. Following 2 hr treatment plates were removed from the incubator and cell lysis was achieved by the addition of 30 μl 5× lysis buffer followed by shaking on a plate shaker at 4° C. for 10 min. At the end of this incubation lysed cells were centrifuged at 800×g for 20 min at 4° C. and the lysate was assessed for P-IKK levels by sandwich immuno-assay carried out in anti-rabbit antibody coated Mesoscale plates. Within an experiment, the results for each treatment were the mean of 2 replicate wells. For initial screening purposes, compounds were tested using an 8 point dilution curve (serial 1:3 dilutions). […] The blank incubation value was subtracted from all control and sample values. To determine the IC50 a sigmoidal curve was fitted to the plot of % inhibition of control P-IKKα levels versus Log10 compound concentration.

[4] = tested on: KMS12-BM (NIK WT) multiple myeloma cells; test: Antiproliferative activity on KMS12-BM multiple myeloma cells (CellTiter-Glo); type: cell-based, human; conditions: Homo sapiens, KMS-12-BM, 96 h, 96 hr treatment, averaged values, read-out: KMS-12 Proliferation inhibition (IC50 (nM))
Procedure, shortened: as §1

Chain of recombinant human NF-kappaB-inducing Kinase (NIK/MAP3K14) (Q99558 whole entry): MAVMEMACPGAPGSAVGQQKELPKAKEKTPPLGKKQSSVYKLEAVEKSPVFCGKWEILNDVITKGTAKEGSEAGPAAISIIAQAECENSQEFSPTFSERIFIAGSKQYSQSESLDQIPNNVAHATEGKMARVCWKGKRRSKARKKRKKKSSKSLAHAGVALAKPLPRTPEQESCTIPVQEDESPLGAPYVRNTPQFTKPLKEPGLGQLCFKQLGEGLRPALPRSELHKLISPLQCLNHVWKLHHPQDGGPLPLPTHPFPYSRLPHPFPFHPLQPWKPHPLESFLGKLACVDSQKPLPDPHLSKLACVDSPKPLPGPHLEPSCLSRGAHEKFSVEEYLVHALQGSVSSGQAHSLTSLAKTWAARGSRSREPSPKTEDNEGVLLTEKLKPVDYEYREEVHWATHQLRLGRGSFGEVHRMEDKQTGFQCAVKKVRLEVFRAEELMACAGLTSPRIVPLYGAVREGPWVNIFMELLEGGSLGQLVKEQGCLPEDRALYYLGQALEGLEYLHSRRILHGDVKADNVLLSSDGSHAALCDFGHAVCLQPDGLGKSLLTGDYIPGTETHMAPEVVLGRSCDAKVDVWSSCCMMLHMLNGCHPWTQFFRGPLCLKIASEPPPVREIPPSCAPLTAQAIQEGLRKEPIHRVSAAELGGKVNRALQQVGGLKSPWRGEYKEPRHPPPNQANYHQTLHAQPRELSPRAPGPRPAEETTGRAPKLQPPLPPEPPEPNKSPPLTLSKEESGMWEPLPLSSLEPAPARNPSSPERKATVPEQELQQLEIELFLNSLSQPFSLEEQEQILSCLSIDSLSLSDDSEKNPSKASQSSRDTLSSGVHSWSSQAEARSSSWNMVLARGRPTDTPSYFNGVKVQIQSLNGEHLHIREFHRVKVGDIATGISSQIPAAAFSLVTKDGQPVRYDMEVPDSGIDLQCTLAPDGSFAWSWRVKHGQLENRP

| IC50 [1] | IC50 [2] | IC50 [3] | IC50 [4] | melting point | IC50 ([3]; Homo sapiens, L-363, 2 h) | Structure (SMILES) |
| --- | --- | --- | --- | --- | --- | --- |
| 5.5 nM | 66 nM | 13.8 nM | > 10000 nM | 114 °C | – | Cc1cnc(OCC2CN(C)CCO2)c(Nc2nccc(-c3cc(C#N)c4c(c3)[C@@](C)(CO)CN4)n2)c1 (single isomer, unassigned) [Compound 151] |
| 1.1 nM | 347 nM | – | 3890 nM | 149 °C | 2.6 nM | Cc1cc(Nc2nccc(-c3cc(C#N)c4c(c3)[C@@](C)(CO)CN4)n2)c(=O)n(CCN2CC(F)C2)c1 [Compound 1i] |
| 13.2 nM | 74 nM | – | > 10000 nM | 230 °C | 21.4 nM | COCCNc1nc(OC)c(Nc2nccc(-c3cc(C#N)c4c(c3)C(C)(CO)CN4)n2)cc1Cl (stereo not drawn) [Compound 2] |
| 1.8 nM | 479 nM | – | 5500 nM | 135 °C | 1.1 nM | Cc1cc(Nc2nccc(-c3cc(C#N)c4c(c3)[C@@](C)(CO)CN4)n2)c(=O)n(CCN2CC(C)OC(C)C2)c1 (stereo partly drawn) [Compound 2i] |
| 1.3 nM | ~1780 nM | – | > 10000 nM | 252 °C | 3.3 nM | C[C@]1(CO)CNc2c(C#N)cc(-c3ccnc(Nc4cc(F)cn(CCN5CCOCC5)c4=O)n3)cc21 [Compound 3i] |
| 1.3 nM | 316 nM | – | > 10000 nM | 235 °C | 8.9 nM | Cc1cc(Nc2nccc(-c3cc(C#N)c4c(c3)[C@@](C)(CO)CN4)n2)c(=O)n(Cc2nccn2C)c1 [Compound 4i] |
| 1 nM | 275 nM | – | 5130 nM | 194 °C | 10 nM | Cc1cc(Nc2nccc(-c3cc(C#N)c4c(c3)[C@@](C)(CO)CN4)n2)c(=O)n(Cc2nccn2C2CC2)c1 [Compound 6i] |
| 4.5 nM | 776 nM | – | > 10000 nM | > 250 °C | 74.1 nM | C[C@]1(CO)CNc2c(C#N)cc(-c3ccnc(Nc4ccc[nH]c4=O)n3)cc21 [Compound 8i] |
| 1 nM | 120 nM | – | > 10000 nM | 313 °C | 8.5 nM | Cc1cc(Nc2nccc(-c3cc(C#N)c4c(c3)[C@@](C)(CO)CN4)n2)c(=O)n(C)c1 [Compound 9i] |
| 1.9 nM | ~1120 nM | – | > 10000 nM | 299 °C | 3.2 nM | CN(C)C(=O)Cn1cc(Cl)cc(Nc2nccc(-c3cc(C#N)c4c(c3)[C@@](C)(CO)CN4)n2)c1=O [Compound 11i] |
| 1.1 nM | 18 nM | – | 813 nM | 198 °C | 0.9 nM | CN(C)CCn1cc(Cl)cc(Nc2nccc(-c3cc(C#N)c4c(c3)[C@@](C)(CO)CN4)n2)c1=O [Compound 12i] |
| 1.9 nM | 31 nM | – | > 10000 nM | 306 °C | 0.9 nM | Cn1cc(Cl)cc(Nc2nccc(-c3cc(C#N)c4c(c3)[C@@](C)(CO)CN4)n2)c1=O [Compound 13i] |
| 1.2 nM | 25 nM | – | > 10000 nM | 232 °C | 11 nM | Cc1cc(Nc2nccc(-c3cc(C#N)c4c(c3)[C@@](C)(CO)CN4)n2)c(=O)n(CCN2CC(C)NC(C)C2)c1 (stereo partly drawn) [Compound 16i] |
| 1.9 nM | 33 nM | – | > 10000 nM | 190 °C | 1.8 nM | Cc1cc(Nc2nccc(-c3cc(C#N)c4c(c3)[C@@](C)(CO)CN4)n2)c(=O)n(CCN2CC(F)(F)C2)c1 [Compound 17i] |
| 0.6 nM | 25 nM | – | > 10000 nM | 148 °C | 2.5 nM | Cc1cc(Nc2nccc(-c3cc(C#N)c4c(c3)[C@@](C)(CO)CN4)n2)c(=O)n(CCN2CCN(C)CC2)c1 [Compound 19i] |
